According to US20060183759A1, “Tissue transglutaminase inhibitors” (priority 2004, published 2006):
Like-named read-outs stand apart in the source and are kept apart here.

Tests used:
[1] = biological target: T1, transglutaminase 2 (TGase 2) (Homo sapiens, UniProt P21980); test: TGase 2 transpeptidase fluorescence assay: incorporation of KXD into N,N-dimethylated-casein (Std and FPC formats); format: biochemical; conditions: for TGase 2 inhibitory activity, SAR comment in words (relative to parent compound): qualitative comparison
T1 sequence (P21980 1-687): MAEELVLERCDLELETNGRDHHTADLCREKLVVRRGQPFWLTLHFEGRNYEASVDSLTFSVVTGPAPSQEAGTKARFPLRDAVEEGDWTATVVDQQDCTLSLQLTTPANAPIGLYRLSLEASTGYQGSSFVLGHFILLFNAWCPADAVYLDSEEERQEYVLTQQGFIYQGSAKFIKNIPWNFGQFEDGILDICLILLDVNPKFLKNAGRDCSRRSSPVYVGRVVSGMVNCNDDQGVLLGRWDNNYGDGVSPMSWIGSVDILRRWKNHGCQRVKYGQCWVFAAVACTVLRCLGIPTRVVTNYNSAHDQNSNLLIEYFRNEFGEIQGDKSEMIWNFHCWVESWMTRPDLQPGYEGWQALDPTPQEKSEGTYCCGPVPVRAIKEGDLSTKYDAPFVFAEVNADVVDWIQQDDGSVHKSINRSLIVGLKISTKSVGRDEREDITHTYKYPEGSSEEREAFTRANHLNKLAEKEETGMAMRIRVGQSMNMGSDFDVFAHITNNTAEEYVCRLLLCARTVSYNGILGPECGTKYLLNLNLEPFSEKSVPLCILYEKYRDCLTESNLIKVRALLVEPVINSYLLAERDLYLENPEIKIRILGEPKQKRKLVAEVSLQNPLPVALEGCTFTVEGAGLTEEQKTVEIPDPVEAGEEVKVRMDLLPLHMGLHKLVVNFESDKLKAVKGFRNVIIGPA
Experimental: Transpeptidase activity was monitored as the increase in fluorescence intensity (FI) that accompanies incorporation of the dansylated Lys derivative, α-N-Boc-Lys-CH2-CH2-dansyl (KXD), into the protein substrate, N,N-dimethylated-casein (NMC).
Therefore, a method was used in which full progress curves (FPC) were recorded for the TGase-catalyzed reaction of KXD with NMC in the presence of inhibitor (Table 1-4). Reactions were initiated by enzyme addition to a solution of substrate and inhibitor. […] From such progress curves, IC50 values were calculated using the following equation: IC50=[I]/{(vc/vss)−1}. Progress curves recorded at several inhibitor concentrations were used to determine FPC IC50 values (Table 1-4).

[2] = biological target: T1, transglutaminase 2 (TGase 2); test: as above; format: biochemical; conditions: standard format (Std): reactions terminated after 60 min, FI recorded, four-parameter fit
[3] = full progress curves (FPC), IC50=[I]/{(vc/vss)−1}, from steady-state velocity, read-out: IC50 (μM, FPC)
[4] = summary of FPC values, read-out: FPC IC50 values

| IC50 [1, 3] [µM] | IC50 [2] [µM] | TGase 2 inhibitory activity, SAR comment in words (relative to parent compound) [1] | IC50 [1, 4] [µM] | SMILES |
| --- | --- | --- | --- | --- |
|  | 4.5 | decreased activity |  | NNC(=O)COc1nc2scc(-c3ccccc3)c2c(=O)n1-c1ccccc1 [986-30, (4-Oxo-3,5-diphenyl-3,4-dihydrothieno[2,3-d]pyrimidin-2-yloxy)acetic acid hydrazide] |
| 0.14 | 0.21 |  | < 0.16 | COc1cccc(-c2csc3nc(SCC(=O)NN)n(-c4cccc(F)c4)c(=O)c23)c1 [986-32, [3-(3-Fluorophenyl)-5-(3-methoxyphenyl)-4-oxo-3,4-dihydrothieno[2,3-d]pyrimidin-2-ylsulfanyl]acetic acid hydrazide] |
| 0.23 | 0.59 |  |  | NNC(=O)CSc1nc2scc(-c3ccccc3)c2c(=O)n1-c1cc(F)ccc1F [986-26, [3-(2,5-Difluorophenyl)-4-oxo-5-phenyl-3,4-dihydrothieno[2,3-d]pyrimidin-2-ylsulfanyl]acetic acid hydrazide] |
| 0.22 | 0.48 |  |  | NNC(=O)CSc1nc2scc(-c3ccccc3)c2c(=O)n1-c1cc(F)cc(F)c1 [986-27, [3-(3,5-Difluorophenyl)-4-oxo-5-phenyl-3,4-dihydrothieno[2,3-d]pyrimidin-2-ylsulfanyl]acetic acid hydrazide] |
|  | > 20 |  |  | O=C(O)CSc1nc2scc(-c3ccc(F)cc3)c2c(=O)n1-c1ccc(F)cc1 [986-54, [3,5-Bis-(4-fluorophenyl)-4-oxo-3,4-dihydrothieno[2,3-d]pyrimidin-2-ylsulfanyl]acetic acid] |
|  | > 20 | loss of inhibitory activity |  | NNC(=O)CSc1nc2sc(-c3ccccc3)cc2c(=O)n1-c1ccccc1 [986-29, (4-Oxo-3,6-diphenyl-3,4-dihydrothieno[2,3-d]pyrimidin-2-ylsulfanyl)acetic acid hydrazide] |
|  | 1.8 |  |  | NNC(=O)CSc1nc2scc(-c3ccccc3)c2c(=O)n1-c1ccccc1Cl [986-23, [3-(2-Chlorophenyl)-4-oxo-5-phenyl-3,4-dihydrothieno[2,3-d]pyrimidin-2-ylsulfanyl]acetic acid hydrazide] |
|  | 1.8 |  |  | NNC(=O)CSc1nc2scc(-c3ccccc3)c2c(=O)n1-c1ccc(Cl)cc1 [986-25, [3-(4-Chlorophenyl)-4-oxo-5-phenyl-3,4-dihydrothieno[2,3-d]pyrimidin-2-ylsulfanyl]acetic acid hydrazide] |
|  | 4.8 | decreased inhibitory activity |  | CCN(CC)CCCOc1ccccc1-c1csc2nc(SCC(=O)NN)n(-c3cccc(F)c3)c(=O)c12 [986-35, [5-[2-(3-Diethylaminopropoxy)phenyl]-3-(3-fluorophenyl)-4-oxo-3,4-dihydrothieno[2,3-d]pyrimidin-2-ylsulfanyl]acetic acid hydrazide] |
|  | > 20 |  |  | CNC(=O)CSc1nc2scc(-c3ccc(F)cc3)c2c(=O)n1-c1ccc(F)cc1 [986-52, 2-[3,5-Bis-(4-fluorophenyl)-4-oxo-3,4-dihydrothieno[2,3-d]pyrimidin-2-ylsulfanyl]-N-methylacetamide] |
| 0.17 | 0.93 |  |  | NNC(=O)CSc1nc2sc3c(c2c(=O)n1-c1cccc(F)c1)C(c1ccccc1)CCC3 (stereo not shown) [986-44, [3-(3-Fluorophenyl)-4-oxo-5-phenyl-3,4,5,6,7,8-hexahydrobenzo[4,5]thieno[2,3-d]pyrimidin-2-ylsulfanyl]acetic acid hydrazide] |

Continued, compound first:

| SMILES | IC50 [1, 3] [µM] | IC50 [2] [µM] | TGase 2 inhibitory activity, SAR comment in words (relative to parent compound) [1] | IC50 [1, 4] [µM] |
| --- | --- | --- | --- | --- |
| NNC(=O)CSc1nc2scc(-c3ccc(F)cc3)c2c(=O)n1-c1ccccc1 [986-08, [5-(4-Fluorophenyl)-4-oxo-3-phenyl-3,4-dihydrothieno[2,3-d]pyrimidin-2-ylsulfanyl]acetic acid hydrazide] | 0.29 | 0.8 |  |  |
| NNC(=O)CSc1nc2scc(-c3ccc(F)cc3)c2c(=O)n1-c1ccc(F)cc1 [986-09, [3,5-Bis-(4-fluorophenyl)-4-oxo-3,4-dihydrothieno[2,3-d]pyrimidin-2-ylsulfanyl]acetic acid hydrazide] | 0.67 | 1.5 |  |  |
| NNC(=O)CSc1nc2scc(-c3ccccc3)c2c(=O)n1-c1cccc(F)c1 [986-19, [3-(3-Fluorophenyl)-4-oxo-5-phenyl-3,4-dihydrothieno[2,3-d]pyrimidin-2-ylsulfanyl]acetic acid hydrazide] | 0.18 | 0.25 |  | < 0.16 |
| Cc1sc2nc(SCCC(=O)NN)n(-c3ccccc3)c(=O)c2c1-c1ccccc1 [986-22, 3-(6-Methyl-4-oxo-3,5-diphenyl-3,4-dihydrothieno[2,3-d]pyrimidin-2-ylsulfanyl)propionic acid hydrazide] |  | 1.3 | diminished activity |  |
| NNC(=O)CSc1nc2ccccc2c(=O)n1-c1ccccc1 [986-03, (4-Oxo-3-phenyl-3,4-dihydroquinazolin-2-ylsulfanyl)acetic acid hydrazide] |  | 18 | decreased activity |  |
| NNC(=O)CSc1nc2scc(-c3ccccc3)c2c(=O)n1-c1ccccc1F [986-18, [3-(2-Fluorophenyl)-4-oxo-5-phenyl-3,4-dihydrothieno[2,3-d]pyrimidin-2-ylsulfanyl]acetic acid hydrazide] | 0.16 | 0.5 |  |  |
| NNC(=O)CSc1nc2scc(-c3ccccc3)c2c(=O)n1-c1ccccc1 [986-01, (4-Oxo-3,5-diphenyl-3,4-dihydro-thieno[2,3-d]pyrimidin-2-ylsulfanyl)acetic acid hydrazide] | 0.25 | 0.8 |  |  |
| COc1cccc(-n2c(SCC(=O)NN)nc3scc(-c4ccccc4)c3c2=O)c1 [986-21, [3-(3-Methoxyphenyl)-4-oxo-5-phenyl-3,4-dihydrothieno[2,3-d]pyrimidin-2-ylsulfanyl]acetic acid hydrazide] | 0.47 | 0.82 |  |  |
| Cc1sc2nc(SCC(=O)NN)n(-c3ccccc3)c(=O)c2c1-c1ccccc1 [986-13, (6-Methyl-4-oxo-3,5-diphenyl-3,4-dihydrothieno[2,3-d]pyrimidin-2-ylsulfanyl)acetic acid hydrazide] | 0.16 | 1.5 | increased activity | < 0.16 |
| CN(CC(=O)NN)c1nc2scc(-c3ccccc3)c2c(=O)n1-c1ccccc1 [986-06, [Methyl-(4-oxo-3,5-diphenyl-3,4-dihydrothieno[2,3-d]pyrimidin-2-yl) -amino]acetic acid hydrazide] |  | > 20 |  |  |
| COc1ccccc1-n1c(SCC(=O)NN)nc2scc(-c3ccccc3)c2c1=O [986-20, [3-(2-Methoxyphenyl)-4-oxo-5-phenyl-3,4-dihydrothieno[2,3-d]pyrimidin-2-ylsulfanyl]acetic acid hydrazide] |  | 2 |  |  |
| COc1ccc(-n2c(SCC(=O)NN)nc3scc(-c4ccccc4)c3c2=O)cc1 [986-15, [3-(4-Methoxyphenyl)-4-oxo-5-phenyl-3,4-dihydrothieno[2,3-d]pyrimidin-2-ylsulfanyl]acetic acid hydrazide] |  | 2.1 |  |  |
| Cc1csc2nc(SCC(=O)NN)n(-c3ccc(F)cc3)c(=O)c12 [986-11, [3-(4-Fluorophenyl)-5-methyl-4-oxo-3,4-dihydrothieno[2,3-d]pyrimidin-2-ylsulfanyl]acetic acid hydrazide] |  | 6.3 |  |  |
| NNC(=O)CSc1nc2scc(-c3ccccc3)c2c(=O)n1-c1ccc(F)cc1 [986-07, [3-(4-Fluorophenyl)-4-oxo-5-phenyl-3,4-dihydrothieno[2,3-d]pyrimidin-2-ylsulfanyl]acetic acid hydrazide] | 0.32 | 1.3 |  |  |
